Data taken from patent US8748461B2, “Metalloenzyme inhibitor compounds” (Viamet Pharmaceuticals, Inc., priority 2011, dated 2014).
Converted amounts (≈) assume the structure as drawn.

Legend:
[1] = system: Puccinia recondita tritici = Puccinia triticina; test: Fungicidal activity vs. leaf rust on wheat plants; type: in vivo; conditions: 50 ppm spray on wheat (Yuma), inoculated the following day, evaluated 7-9 days later; for pest or weed control at 50 ppm: read-out: Puccinia Rating (% Disease Control @ 50 ppm)
From the text: D. Evaluation of Fungicidal Activity Vs. Leaf Rust (Causal Agent Puccinia recondita Tritici=Puccinia triticina; Bayer code PUCCRT). […] Each pot contained 3-8 seedlings. These plants were sprayed until wet with the formulated test compounds. The compounds were formulated at 50 ppm in 10 vol. % acetone plus 90 vol. % Triton X water (deionized water 99.99 wt %+0.01 wt % Triton X100), giving a “formulated test compound.” Formulated test compounds were applied to plants using a turn table sprayer fitted with two opposing air atomization nozzles which delivered approximately 1500 L/ha of spray volume. On the following day, the leaves were inoculated with an aqueous spore suspension of Puccinia recondita tritici and the plants were kept in high humidity overnight to permit spores to germinate and infect the leaf. The plants were then transferred to a greenhouse until disease developed on untreated control plants. Disease severity was evaluated 7-9 days later, depending on the speed of disease development. In each case of Table 3, the Puccinia rating scale is as follows: […]

[2] = system: Septoria tritici (ATCC 26517); test: Minimum Inhibitory Concentration (MIC) vs. Septoria tritici; type: cell-based; conditions: 50% reduction in growth of S. tritici, 22° C., seven days; for MIC: Zymoseptoria tritici, ATCC26517, 168 h, read-out: Septoria Rating (MIC)
In short: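 Growth inhibition of S. tritici by CLSI-based filamentous-fungus microdilution, 2-fold series 16 to 0.016 μg/mL in RPMI-1640/MOPS with 2% DMSO. Inoculum approximately 5×10^4 cfu/mL; plates incubated 22° C, seven days, dark, unshaken.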

Compound	MIC [2] [µg/mL]	Septoria Rating (MIC) [2]	pest or weed control at 50 ppm [1] [%]	Puccinia Rating (% Disease Control @ 50 ppm) [1]
N#Cc1cc(COc2ccc(C(F)(F)C(O)(Cn3cnnn3)c3ccc(F)cc3F)nc2)ccc1F (stereo not shown) [Compound 65, 5-(((6-(2-(2,4-Difluorophenyl)-1,1-difluoro-2-hydroxy-3-(1H-tetrazol-1-yl)propyl)pyridin-3-yl)oxy)methyl)-2-fluorobenzonitrile]	≤ 0.5		80 to 100	
OC(Cn1cnnn1)(c1ccc(F)cc1F)C(F)(F)c1ccc(OCc2ccccc2)cn1 (stereo not shown) [Compound 30, 1-(5-(Benzyloxy)pyridin-2-yl)-2-(2,4-difluorophenyl)-1,1-difluoro-3-(1H-tetrazol-1-yl)propan-2-ol]		A (≦0.5)		A (80-100)
N#Cc1ccc(COc2ccc(C(F)(F)C(O)(Cn3ncnn3)c3ccc(F)cc3F)nc2)cc1 (stereo not shown) [Compound 83, 4-(((6-(2-(2,4-Difluorophenyl)-1,1-difluoro-2-hydroxy-3-(2H-tetrazol-2-yl)propyl)pyridin-3-yl)oxy)methyl)benzonitrile]	1.5 to 4 (≈ 3.1 to 8.26 µM)		40 to 59	
OC(Cn1cnnn1)(c1ccc(F)cc1F)C(F)(F)c1ccc(OCC(F)c2ccccc2)cn1 (stereo not shown) [Compound 123, 2-(2,4-difluorophenyl)-1,1-difluoro-1-(5-(2-fluoro-2-phenylethoxy)pyridin-2-yl)-3-(1H-tetrazol-1-yl)propan-2-ol]	≤ 0.5		80 to 100	
N#Cc1ccc(COc2ccc(C(F)(F)C(O)(Cn3cnnn3)c3ccc(F)cc3F)nc2)cc1F (stereo not shown) [Compound 10, 4-(((6-(2-(2,4-Difluorophenyl)-1,1-difluoro-2-hydroxy-3-(1H-tetrazol-1-yl)propyl)pyridin-3-yl)oxy)methyl)-2-fluorobenzonitrile]	≤ 0.5		80 to 100	
OC(Cn1cnnn1)(c1ccc(F)cc1F)C(F)(F)c1ccc(OCC(F)c2ccc(OC(F)F)cc2)cn1 (stereo not shown) [Compound 124, 1-(5-(2-(4-(difluoromethoxy)phenyl)-2-fluoroethoxy)pyridin-2-yl)-2-(2,4-difluorophenyl)-1,1-difluoro-3-(1H-tetrazol-1-yl)propan-2-ol]	≤ 0.5		80 to 100	
OC(Cn1cnnn1)(c1ccc(F)cc1F)C(F)(F)c1ccc(OCc2ccncc2)cn1 (stereo not shown) [Compound 118, 2-(2,4-difluorophenyl)-1,1-difluoro-1-(5-(pyridin-4-ylmethoxy)pyridin-2-yl)-3-(1H-tetrazol-1-yl)propan-2-ol]	≤ 0.5		< 40	
OC(Cn1cnnn1)(c1ccc(F)cc1F)C(F)(F)c1ccc(Oc2ccc(Br)cn2)cn1 (stereo not shown) [Compound 106, 1-(5-((5-bromopyridin-2-yl)oxy)pyridin-2-yl)-2-(2,4-difluorophenyl)-1,1-difluoro-3-(1H-tetrazol-1-yl)propan-2-ol]	≤ 0.5		80 to 100	
COc1ccc(Oc2ccc(C(F)(F)C(O)(Cn3cnnn3)c3ccc(F)cc3F)nc2)cc1 (stereo not shown) [Compound 87, 2-(2,4-Difluorophenyl)-1,1-difluoro-1-(5-(4-methoxyphenoxy)pyridin-2-yl)-3-(1H-tetrazol-1-yl)propan-2-ol]	> 4		80 to 100	
COc1cccc(Oc2ccc(C(F)(F)C(O)(Cn3cnnn3)c3ccc(F)cc3F)nc2)c1 (stereo not shown) [Compound 85, 2-(2,4-Difluorophenyl)-1,1-difluoro-1-(5-(3-methoxyphenoxy)pyridin-2-yl)-3-(1H-tetrazol-1-yl)propan-2-ol]	≤ 0.5		80 to 100	
N#Cc1cccc(COc2ccc(C(F)(F)C(O)(Cn3cnnn3)c3ccc(F)cc3F)nc2)c1 (stereo not shown) [Compound 52, 3-(((6-(2-(2,4-Difluorophenyl)-1,1-difluoro-2-hydroxy-3-(1H-tetrazol-1-yl)propyl)pyridin-3-yl)oxy)methyl)benzonitrile]	≤ 0.5		80 to 100	
OC(Cn1cnnn1)(c1ccc(F)cc1F)C(F)(F)c1ccc(Oc2ncccn2)cn1 (stereo not shown) [Compound 97, 2-(2,4-difluorophenyl)-1,1-difluoro-1-(5-(pyrimidin-2-yloxy)pyridin-2-yl)-3-(1H-tetrazol-1-yl)propan-2-ol]	0.5 to 1.5 (≈ 1.12 to 3.35 µM)		80 to 100	
N#Cc1ccc(Oc2ccc(C(F)(F)C(O)(Cn3cnnn3)c3ccc(Cl)cc3F)nc2)cc1 (stereo not shown) [Compound 79, 4-((6-(2-(4-Chloro-2-fluorophenyl)-1,1-difluoro-2-hydroxy-3-(1H-tetrazol-1-yl)propyl)pyridin-3-yl)oxy)benzonitrile]	≤ 0.5		80 to 100	
OC(Cn1cnnn1)(c1ccc(F)cc1F)C(F)(F)c1ccc(Oc2ccc(F)c(F)c2)cn1 (stereo not shown) [Compound 86, 1-(5-(3,4-Difluorophenoxy)pyridin-2-yl)-2-(2,4-difluorophenyl)-1,1-difluoro-3-(1H-tetrazol-1-yl)propan-2-ol]	≤ 0.5		80 to 100	
CC(C)COc1ccc(C(F)(F)C(O)(Cn2cnnn2)c2ccc(Cl)cc2F)nc1 (stereo not shown) [Compound 69, 2-(4-Chloro-2-fluorophenyl)-1,1-difluoro-1-(5-isobutoxypyridin-2-yl)-3-(1H-tetrazol-1-yl)propan-2-ol]	≤ 0.5		80 to 100	

More lines, main results first:

MIC [2] [µg/mL]	Septoria Rating (MIC) [2]	Compound	pest or weed control at 50 ppm [1] [%]	Puccinia Rating (% Disease Control @ 50 ppm) [1]
≤ 0.5		OC(Cn1cnnn1)(c1ccc(F)cc1F)C(F)(F)c1ccc(OCc2ccc(Cl)c(F)c2)cn1 (stereo not shown) [Compound 27, 1-(5-((4-Chloro-3-fluorobenzyl)oxy)pyridin-2-yl)-2-(2,4-difluorophenyl)-1,1-difluoro-3-(1H-tetrazol-1-yl)propan-2-ol]	80 to 100	
≤ 0.5		N#Cc1ccc(Oc2ccc(C(F)(F)C(O)(Cn3cnnn3)c3ccc(Cl)cc3F)nc2)cc1F (stereo not shown) [Compound 81, 4-((6-(2-(4-Chloro-2-fluorophenyl)-1,1-difluoro-2-hydroxy-3-(1H-tetrazol-1-yl)propyl)pyridin-3-yl)oxy)-2-fluorobenzonitrile]	80 to 100	
≤ 0.5		OC(Cn1cnnn1)(c1ccc(F)cc1F)C(F)(F)c1ccc(Oc2ncc(C(F)(F)F)cn2)cn1 (stereo not shown) [Compound 105, 2-(2,4-difluorophenyl)-1,1-difluoro-3-(1H-tetrazol-1-yl)-1-(5-((5-(trifluoromethyl)pyrimidin-2-yl)oxy)pyridin-2-yl)propan-2-ol]	80 to 100	
≤ 0.5		OC(Cn1cnnn1)(c1ccc(F)cc1F)C(F)(F)c1ccc(OCc2ccc(Cl)cc2F)cn1 (stereo not shown) [Compound 1, 1-(5-(4-Chloro-2-fluorobenzyloxy)pyridin-2-yl)-2-(2,4-difluorophenyl)-1,1-difluoro-3-(1H-tetrazol-1-yl)propan-2-ol]	80 to 100	
≤ 0.5		OC(Cn1cnnn1)(c1ccc(F)cc1F)C(F)(F)c1ccc(OCc2ccc(OC(F)(F)F)cc2)cn1 (stereo not shown) [Compound 21, 2-(2,4-Difluorophenyl)-1,1-difluoro-3-(1H-tetrazol-1-yl)-1-(5-((4-(trifluoromethoxy)benzyl)oxy)pyridin-2-yl)propan-2-ol]	80 to 100	
≤ 0.5		OC(Cn1cnnn1)(c1ccc(F)cc1F)C(F)(F)c1ccc(OCc2ccc(Cl)cn2)cn1 (stereo not shown) [Compound 113, 1-(5-((5-chloropyridin-2-yl)methoxy)pyridin-2-yl)-2-(2,4-difluorophenyl)-1,1-difluoro-3-(1H-tetrazol-1-yl)propan-2-ol]	80 to 100	
≤ 0.5		OC(Cn1cnnn1)(c1ccc(F)cc1F)C(F)(F)c1ccc(Oc2cccc(Cl)c2)cn1 (stereo not shown) [Compound 84, 1-(5-(3-Chlorophenoxy)pyridin-2-yl)-2-(2,4-difluorophenyl)-1,1-difluoro-3-(1H-tetrazol-1-yl)propan-2-ol]	80 to 100	
≤ 0.5		OC(Cn1cnnn1)(c1ccc(Cl)cc1F)C(F)(F)c1ccc(OCC(F)(F)F)cn1 (stereo not shown) [Compound 71, 2-(4-Chloro-2-fluorophenyl)-1,1-difluoro-3-(1H-tetrazol-1-yl)-1-(5-(2,2,2-trifluoroethoxy)pyridin-2-yl)propan-2-ol]	80 to 100	
≤ 0.5		N#Cc1ccc(COc2ccc(C(F)(F)C(O)(Cn3cnnn3)c3ccc(Cl)cc3F)nc2)cc1 (stereo not shown) [Compound 55, 4-(((6-(2-(4-Chloro-2-fluorophenyl)-1,1-difluoro-2-hydroxy-3-(1H-tetrazol-1-yl)propyl)pyridin-3-yl)oxy)methyl)benzonitrile]	80 to 100	
0.5 to 1.5 (≈ 1.22 to 3.65 µM)		CC(C)Oc1ccc(C(F)(F)C(O)(Cn2cnnn2)c2ccc(F)cc2F)nc1 (stereo not shown) [Compound 42, 2-(2,4-Difluorophenyl)-1,1-difluoro-1-(5-isopropoxypyridin-2-yl)-3-(1H-tetrazol-1-yl)propan-2-ol]	80 to 100	
≤ 0.5		OC(Cn1cnnn1)(c1ccc(F)cc1F)C(F)(F)c1ccc(OCc2ccc(C(F)(F)F)cn2)cn1 (stereo not shown) [Compound 114, 2-(2,4-difluorophenyl)-1,1-difluoro-3-(1H-tetrazol-1-yl)-1-(5-((5-(trifluoromethyl)pyridin-2-yl)methoxy)pyridin-2-yl)propan-2-ol]	80 to 100	
